The values that follow come from patent US8772274B1, “Anti-cancer compositions and methods” (The Penn State Research Foundation, priority 2008, dated 2014).

Each structure is given as a SMILES string. Structures can show the parent of a compound that is named as a salt.

Assay [1] has as its system UACC 903 melanoma cells. Nature of the assay: Cell cycle analysis (propidium iodide, FACScan). It counts as cell-based. The conditions noted are these: 3.5 to 21 μM; 24 hours. How it is done:
Cell cycle analysis is undertaken by growing 1.5×10^6 melanoma cells in 100-mm culture dishes followed by treatment with PBIT or PBISe (3.5 to 21 μM) for 24 hours. Cells are collected and stained using propidium iodide (100 μg/mL; Sigma, St Louis, Mo.), 20 μg/mL Ribonuclease A (Roche, Indianapolis, Ind.) 3 μg/mL Triton X-100 dissolved in 0.1% (W/V) sodium citrate for 30 minutes at 4° C. (Krishan, A., J Cell Biol 1975; 66:188-93). Stained cells are analyzed using the FACScan analyzer (Becton Dickinson, San Jose, Calif.) and data processed using ModFit LT software (Verity Software House, Topsham, Me.).

The test system of assay [2] is HT-1080 fibrosarcoma cells. Nature of the assay: MTS cell viability assay, HT-1080. It counts as cell-based, human.
Experimental: (§1) Growth inhibitory effects on cultured cells from human vertical growth phase (VGP) melanoma cell line WM115, Lung adenocarcinoma (A549), fibrosarcoma (HT-1080), prostate adenocarcinoma (PC-3), ovarian carcinoma (OVCAR-3), and breast adenocarcinoma (MDA-MB-231) are plated in 96 well plates at a density of 5×10^3 cells/well in 100 μl media. […] Dose response curves for each compound are generated and the IC50 values (μM) determined using GraphPad Prism software. Each experiment is replicated at least 3 times and the average IC50 (μM) values with standard error represented.
For assay [3], the system named is UACC 903 melanoma tumors. The experiment in a line: Tumorigenicity assessment, UACC 903 xenograft, i.p. treatment. It counts as in vivo, nude mice. The conditions noted are these: day 24; i.p. 0.315 moles (2.5 ppm selenium) Monday, Wednesday, Friday for 3 weeks. How it is done:
Tumor kinetics are measured by subcutaneous injection of 5×10^6 UACC 903 or 2.5×10^61205 Lu cells in 0.2 ml of DMEM containing 10% FBS above left and right rib cages of 4-6 week old female nude mice (Harlan Sprague Dawley, Indianapolis, Ind.). Six days later, a fully vascularized tumor has developed and mice are randomly placed in control DMSO or experimental (PBIT or PBISe) groups (n=5 animals; 10 tumors total) followed by i.p. treatment with PBIT ([…]) or PBISe ([…]; equivalent to 2.5 ppm selenium per 20 g mouse) on Monday, Wednesday and Friday for 3 weeks. Dimensions of developing tumors and body weight are measured.

For assay [4], the system named is UACC 903 melanoma cells. The experiment in a line: Apoptosis, Apo-ONE caspase-3/7 assay. It counts as cell-based. How it is done:
[…] Proliferation and apoptosis rates are measured using a BrdU ELISA kit (Roche Applied Sciences, Indianapolis, Ind.) and Apo-ONE Homogenous caspase-3/7 Assay kit (Promega, Madison, Wis.), respectively, (Madhunapantula S V, et al., Cancer Res 2007; 67:3626-36).

Assay [5] deals with UACC 903 melanoma tumors. Nature of the assay: Topical application on melanoma tumor growth in vivo. As to conditions: topical daily 0.0945 umoles (1.5 ppm selenium, 5.12 mg/kg); day 17 through day 29.
Experimental: UACC 903 melanoma cells (0.25×10^5/site) are subcutaneously injected into left and right flanks of 4-6 weeks old female nude mice (n=4) and 24 h later PBIT, PBISe (0.0945 umoles, 1.5 ppm selenium equivalent to 5.12 mg/kg body weight) or vehicle control (acetone) is applied topically for 29 days. Sizes of developing tumors are measured and average sizes±S.E.M. (in mm^3) plotted. A minimum of 5 mice per group is used for the topical treatment.
The subject of assay [6] is PC-3 prostate adenocarcinoma cells. Nature of the assay: MTS cell viability assay, PC-3. It counts as cell-based, human.
Experimental: as §1
For assay [7], the system named is iNOS (total nitrate+nitrite in Caco-2 cells). Nature of the assay: Nitrite estimation (nitrate/nitrite colorimetric assay). The conditions noted are these: 2-4 μM, 72 hours. In kind it is cell-based. How it is done: Nitrite content in cell culture media is determined using a nitrate/nitrite colorimetric assay kit (Cayman Chemical Company, Ann Arbor, Mich.) essentially as described in Salvucci, O. et al., Cancer Res 2001; 61:318-26. Caco-2 cells (1×10^6) are plated in 60 mm culture dishes in advanced DMEM containing 10% heat treated FBS for 12 hours, growing cells conditioned with phenol-red free DMEM containing 0.5% FBS for an additional 12 hours. Cells are then treated with increasing concentrations of PBIT (40 and 80 μM) or PBISe (2 and 4 μM) dissolved in phenol-red free DMEM (2 ml) containing 0.5% FBS for 72 hours. Culture supernatants are collected and total nitrite (nitrate+nitrite) measured by incubating 80 μL supernatant with enzyme cofactor mixture (10 μL) and nitrate reductase (10 μL) for 2 hours. Total nitrite is measured by the addition of Griess reagent-I and II (50 μL each). A nitrate standard curve (5-35 μM) is simultaneously prepared. Total nitrite present in media alone is subtracted from all experimental values and represented as micromolar nitrite produced following each treatment.

The test system of another assay is UACC 903 tumors. The experiment in a line: Apoptosis and proliferation rates in size and time matched tumors. As to conditions: day 15, i.p. on alternate days. In kind it is in vivo, nude mice.
For assay [8], the system named is normal human fibroblast cells (FF2441). Nature of the assay: MTS cell viability assay, normal fibroblasts. In kind it is cell-based. The conditions noted are these: Homo sapiens, FF2441, read-out: Inhibition of growth IC50, Fibroblast cells (FF2441) (Table II).
Experimental: 5×10^3 cells per well in 100 μl DMEM-10% FBS are grown in a 96-well plate for 36 or 72 hours, respectively for melanoma (UACC 903, 1205 Lu and WM115) and human fibroblast (FF2441) cell lines and treated with either PBS vehicle or increasing concentrations (3.5-21 μM) of PBIT, PBISe, PEIT or PEISe for 24 hours. Cellular viability compared to control treated cells is measured using the MTS assay (Promega, Madison, Wis.). IC50 (μM) values for each compound in respective cell lines is determined from three independent experiments using GraphPad Prism version 4.01 (GraphPad, San Diego, Calif.), bars, SEM.
Viability of colon adenocarcinoma cells (Caco-2, HT 29, HCT 116, SW 480) and normal fibroblast cells (FF2441) treated with PBIT (1), PBISe (2), PEIT (3) or PEISe (4) is compared. The IC50 value is evaluated by treating with increasing concentrations of PBIT, PEIT, PEISe (10-100 μM) or PBISe (1.6-50 μM) for 24-72 hours and the number of viable cell are quantified using MTS (Promega, Wis.).
Assay [9] has as its system PI3 kinase signaling in Caco-2 cells. Nature of the assay: Western blot analysis of Caco-2 cell lysates. It counts as cell-based. How it is done:
For additional Western blot analysis, Caco-2 cell lysates are harvested by addition of lyses buffer containing 50 mM HEPES (pH 7.5), 150 mM NaCl, 10 mM EDTA, 10% glycerol, 1% Triton X-100, 1 mM sodium orthovanadate, 0.1 mM sodium molybdate, 1 mM phenylmethylsulfonyl fluoride, 20 μg/ml aprotinin, and 5 μg/ml leupeptin. Whole cell lysates are centrifuged (≦10,000×g) for 10 minutes at 4° C. to remove cell debris. Protein concentrations are quantitated using the BCA assay (Pierce; Rockford, Ill.), and 30 μg of lysate loaded per lane onto NuPAGE Gels (Life Technologies, Inc. Carlsbad, Calif.). Following electrophoresis, samples are transferred to polyvinylidene difluoride (PVDF) membrane (Pall Corporation, Pensacola, Fla.) and the blots probed with antibodies according to each supplier's recommendations: antibodies to PRAS40 and phosphorylated PRAS40 from Invitrogen (Invitrogen Corporation, Carlsbad, Calif.); antibodies to cyclin D1, p27, p21, and Erk2 from Santa Cruz Biotechnology (Santa Cruz, Calif.); and antibodies to Akt2, phosphorylated-Akt (Ser473), phosphorylated-Erk 1/2 and cleaved PARP from Cell Signaling Technology (Danvers, Mass.). Secondary antibodies conjugated with horseradish peroxidase are obtained from Santa Cruz Biotechnology (Santa Cruz, Calif.). Immunoblots are developed using the enhanced chemiluminescence (ECL) detection system (Pierce Biotechnology, Rockford, Ill.) (FIGS. 6A and 6B).

Experimental for UACC 903 tumors: For mechanistic studies, 5×10^6 UACC 903 cells are injected subcutaneously into nude mice generating tumors of the same size developing at parallel time points. 6-days later mice are treated i.p. with DMSO vehicle, PBIT or PBISe (0.315 moles each) on alternate days up to day 15. Size and time matched tumors are harvested at days 9, 11, 13, and 15 to assess changes in cell proliferation and apoptosis. […] Protein concentration is quantitated using Bio-Rad protein assay reagent (Bio-Rad laboratories, Hercules, Calif.) and analyzed by Western blotting.
For caspase-3/7 activity determination, 100 μg of protein lysate is incubated with a Rhodamine-110 conjugated caspase-3/7 substrate (Z-DEVD) for 1-2 hours and fluorescence (485 nm excitation and 520 nm emission) measured in a SPECTRAmax M2 plate reader. […] A minimum of 6 different tumors with 4-6 fields per tumor is analyzed and results represented as the average±SEM. […]

On to `N=C(N)[Se]CCc1ccc(CC[Se]C(=N)N)cc1` [PBISe, s,s′-1,4-phenylene-bis(1,2-ethanediyl)bis-isoselenourea dihydrobromide], for which, in the assay on UACC 903 melanoma cells [1], the “increase in G2/M cells” value was approximately 3 fold and the “sub G0/G1 population” value is reported as “increased”. In addition, the IC50 in assay [2] (Homo sapiens, HT-1080, 24 h, read-out: Inhibition Cancer Cells IC50, HT-1080 (Table III)) came out at 3.2 ± 0.61 µM. Moreover, in assay [2] (ratio of IC50 PBIT/PBISe, HT-1080), the “Fold increase in efficacy (PBIT/PBISe), HT-1080” value was more than 31.2 fold. In the assay on UACC 903 melanoma tumors [3], the “difference in tumor volume compared to control DMSO or PBIT, UACC 903” value is recorded as approximately 30%. Moreover, in the assay on UACC 903 melanoma cells [4] (UACC 903, increasing concentrations up to 10.5 μM, 24 hours, compared to PBIT), the caspase-3/7 activity entry was “elevated”. Moreover, the “cell death at higher doses” value in the assay on UACC 903 melanoma cells [4] (doses higher than 10.5 μM) is given as more than 80%. Also, in the assay with UACC 903 melanoma tumors [5], the “decrease in tumor volume versus vehicle acetone or PBIT treated mice” value turned out to be 50%. Moreover, the IC50 in [6] (Homo sapiens, 24 h, read-out: Inhibition Cancer Cells IC50, PC-3 (Table III)) came out at 6.6 ± 0.95 µM. The “Fold increase in efficacy (PBIT/PBISe), PC-3” value in [6] (ratio of IC50 PBIT/PBISe, PC-3) is listed as more than 15.2 fold. For the same compound, the “total nitrate+nitrite production” value in assay [7] is recorded as “reduces”. In addition, in the assay with UACC 903 tumors, the “caspase-3/7 activity in tumors versus PBIT or DMSO vehicle” value was 2 fold. Moreover, the IC50 in [8] was 17.1 ± 0.59 µM. In addition, in assay [9], the “cleaved PARP” value is “increase”; the “downstream pPRAS40 level” value was “decreased”; the “pAkt and Akt2 levels” value is listed as “decreased”.
